# From patent publication US11246873B2, “Directed differentiation of oligodendrocyte precursor cells to a myelinating cell fate” (The Scripps Research Institute, priority 2011, dated 2022)
# “Also recorded” adds a separate entry of the source. Where two headings read alike, the source gives them in different places.
# Assays:
# [1] = tested on: splenocytes of EAE mice; conditions: mouse, in vivo, ip, 10 mg/kg
# Method: (A-K) EAE was induced in mice by injecting PLP and pertussis toxin. […] Total splenocytes were isolated from the mice, stimulated with PMA and ionomycin, and analyzed for various populations of immune cells and cytokine secretion after 48 hours. Protein transport was blocked in cells used for cytokine analysis using Monoeiosin. […] Error bars indicate standard deviation of the mean within each group of 5 mice.
# (§1) The primary immunological processes involved in MS and EAE are T-cell mediated and the primary treatment paradigms are based on immunomodulatory drugs (T. Kopadze et al., Arch Neurol, 63, 1572 (2006); J. M. Greer et al., J Immunol, 180, 6402 (2007), M. P. Pender and J. M. Greer, curr Allergy Asthma Rep, 7, 285 (2007)).
# [2] = tested on: splenocytes of normal mice; test: Immune cell populations and cytokine production in splenocytes of normal mice; format: in vivo, mouse; conditions: 10 mg/kg i.p., 14 days; for cytokine production (IL2, IL10, TNF, IFN-γ producing CD4+ T-cells) / number of B cells: 10 mg/kg
# Excerpt: Total splenocytes were isolated from the mice, stimulated with PMA and ionomycin and analyzed for various populations of immune cells and cytokine secretion after 48 hrs. Protein transport was blocked in cells used for cytokine analysis using monoeiosin. […] Error bars indicate standard deviation of the mean within each group of 5 mice.
# as §1
# [3] = tested on: C57BL/6 mice fed cuprizone; conditions: for remyelination / myelin staining in the corpus callosum versus vehicle, week 2: 2 weeks after cuprizone withdrawal
# Excerpt: Data is represented in terms of threshold bins on the grey scale (0-50) as described. Error bars represent standard deviations of at least 6 corpus callosum regions.
# (B) Images were converted to a 256 shade grey scale. (C) The 256 shades of grey were divided into 5 bins of 50 shades each. Number of objects in the corpus callosum region in each bin were counted using Image-Pro plus.
# By administering drugs at the time when a cuprizone-free diet is reintroduced, the efficacy of promyelinating agents can be examined by evaluating the relative kinetics of OPC dependent remyelination (T. Skripuletz et al., Am J Pathol, 172, 1053 (2008)). […] Drug or vehicle treated mice were sacrificed in groups of 5 weekly for 5 weeks, following drug treatment, and remyelination was quantitatively evaluated by staining the corpus callosum regions of harvested brains with LFB (FIG. 9A, B).
# [4] = tested on: rat optic nerve derived OPCs; test: High content imaging assay of OPC differentiation (MBP immunostaining, OPERA); format: cell-based; conditions: OPCs in differentiation medium (2 ng/ml PDGF), 6 days
# Method: FIG. 1A-C. […] The calculated EC50 values were determined using appropriate Graphpad Prism 5.0 curve fitting software. […] OPCs were plated in 384 well plates at 1000 cells per well in OPC media containing basal PDGF-αα (2 ng/mL) and treated with serial dilutions of compounds. Following six days of compound treatment, cells were fixed and subjected to immunofluorescence analysis using anti-myelin basic protein (MBP) antibody. Image acquisition and quantification of MBP staining was performed using the OPERA imaging system.
# FIG. 11A-B. Screen to identify inducers of OPC differentiation. (A) OPCs were maintained as proliferating A2B5-positive cells under basal growth conditions (Neurobasal medium, B27 supplement without Vitamin A, non-essential amino acids, L-Glutamine, 30 ng/ml PDGF). OPCs were plated in basal differentiation media (Neurobasal medium, B27 supplement without Vitamin A, non-essential amino acids, L-Glutamine, 2 ng/ml PDGF), treated with DMSO (<0.1%) or thyroid hormone (1 uM), fixed after 6 days in culture, and stained using antibodies for CNP, O4, or MBP. […] (B) Screen strategy using A2B5 positive OPCs cultured under basal differentiation conditions and treated with compounds for 6 days to identify small molecules that induce the differentiation of OPCs to mature, MBP expressing oligodendrocytes.
# FIG. 12A-B. Primary hit confirmation. (A) Dose response assay used to confirm primary screening hits and determine potency (EC50). (EC50) is defined as the concentration that results in a half maximal increase in the percentage of total cells that express MBP as detected by immunostaining. […] Cells were fixed and immunostained using antibodies for MBP. Error bars represent standard deviations from 3 replicate experiments. […]
# FIG. 21. […] OPCs were plated in differentiation medium (2 ng/ml PDGF) and treated with various concentrations of compounds for 6 days. Cells were fixed and immunostained for MBP.
# A large-scale small molecule screen was conducted to identify small molecules that promote the differentiation of oligodendrocyte precursor cells (OPCs) to a mature myelinating fate. High content imaging was used to detect in-well differentiation of rat optic nerve derived OPCs. Rat optic nerve derived OPCs were expanded en masse in OPC media containing 30 ng/mL PDGFαα. To screen for small molecule inducers of OPC differentiation, OPCs (cultured for fewer than 15 passages) were plated in poly-D-lysine coated 384 well culture plates in OPC Media containing 2 ng/mL PDGFαα and immediately treated with compounds at a final concentration of 6 μM (0.6% DMSO). Compound treated cells were incubated at 37° C., 5% CO2 for 6 days. At the end of 6 days, cells were fixed in 4% paraformaldehyde and subjected to immunofluorescence analysis. Anti-Myelin Basic Protein monoclonal antibody (a.a. 129-138, clone 1 monoclonal antibody, Millipore) (1:1000 dilution) in blocking buffere solution (3% BSA, 0.3% Triton X-100 in PBS) was added to fixed and washed cells and incubated at 4° C. overnight.
# [5] = tested on: total splenocytes stimulated with CD3; test: T-cell activation (CD69, CD25) and proliferation (CFSE) in vitro; format: cell-based, mouse; conditions: versus DMSO
# Excerpt: (A-F) Total splenocytes were isolated from mice and stimulated with CD3 and analyzed by flow cytometry for expression of T-cell activation markers CD69 and CD25 and T-cell proliferation using CFSE. (A) Unstimulated cells. (B) DMSO treated cells. […] The numbers represent percentage gated populations positive for the given marker.
# as §1
# [6] = tested on: OPCs; test: qRT-PCR of cell cycle genes in OPCs; format: cell-based, rat; conditions: benztropine 1.5 uM
# Excerpt: OPCs express mAChRs, predominantly subtypes M1, M3, and M5 (F. Ragheb et al., J Neurochem, 77, 1396 (2001)). […] Activation of M1 and M3 mAChRs is coupled to downstream signal transduction events through phospholipase C, which results in increased intracellular calcium concentrations (F. Ragheb et al., J Neurochem, 77, 1396 (2001)) (FIG. 23C). M2 and M4 mAChR activation inhibits adenylatecyclase, leading to decreased intracellular cAMP levels (C. C. Felder, FASEB J, 9, 619 (1995); M. Lopez-Ilasaca et al., Science, 275, 394 (1997)). […] Acetylcholine is a known regulator of OPC proliferation and, as such, muscarinic receptor subtypes represent a reasonable class of therapeutic targets for the modulation of OPC proliferation and differentiation (F. De Angelis et al., Dev Neurobiol, (2011)).
# [7] = tested on: spinal cord of EAE mice; test: Histology of spinal cord sections from EAE mice (LFB, H&E, GST-π, NG2); format: in vivo, mouse; conditions: for LFB (myelin) staining in areas infiltrated by lymphocytes / lymphocyte / immune cell infiltration (H&E): 10 mg/kg, relapse phase
# Excerpt: FIG. 26. […] Spinal cords were isolated from mice representative of the average group scores during the relapse phase of EAE, sectioned and stained with Luxol Fast Blue and H&E (left panel) and Luxol Fast Blue only (right panel). Arrows point to regions of lymphocyte infiltration.
# [8] = tested on: caspase 3; test: Western blot of caspase 3 and cleaved caspase 3 in differentiated OPCs; conditions: benztropine 1.5 uM, thyroid hormone 1 uM, 6 days
# Excerpt: FIG. 32. Western blot analysis of cleaved caspase activity in differentiated OPCs. […] Total protein was isolated and analyzed by Western blot using a specific antibody for the expression of caspase 3 and cleaved caspase 3.
# [9] = spinal cord sections of EAE mice
structure (smiles),measurement,setting,value
CN1[C@@H]2CC[C@H]1C[C@@H](OC(c1ccccc1)c1ccccc1)C2 [benztropine],"number of total splenocytes, CD4+, CD8+, CD4+/CD44Hi and CD8+/CD44Hi T-cells",[1],no effect
same,"number of total splenocytes, CD4+, CD8+, CD4+/CD44Hi and CD8+/CD44Hi T-cells",[2],no effect
same,"cytokine production (IL2, IL10, TNF, IFN-γ producing CD4+ T-cells)",[2],no effect on cytokine production
same,number of B cells,[2],minor but significant decrease
same,"cytokine production (IL2, IL10, TNF, IFN-γ producing CD4+ T-cells)",[2]; listed as Benztropine,no effect
same,number of B cells,[2]; listed as Benztropine,no effect
same,"remyelination / myelin staining in the corpus callosum versus vehicle, week 2",[3]; 10 mg/kg i.p.,significant increase in myelin staining in the corpus callosum
same,"remyelination / myelin staining in the corpus callosum versus vehicle, week 2","[3]; 10 mg/kg i.p., listed as benzatropine",increased remyelination
same,increase in myelin staining in the corpus callosum versus vehicle,"[3]; 10 mg/kg i.p., 2 weeks after drug treatment",~2 fold
same,myelin staining versus vehicle at later time points,"[3]; 10 mg/kg i.p., up to 5 weeks",significant differences were not observed
same,toxicity to mature oligodendrocytes,"[3]; mouse, in vivo",not toxic to mature oligodendrocytes
same,induction of OPC differentiation (MBP staining),[4],promote OPC differentiation; also recorded: dose dependent activity
same,"T-cell activation (CD69, CD25)",[5],no effect
same,T-cell proliferation (CFSE),[5],no effect
same,"transcript levels of cyclin D1, cyclin D2, c-Fos, c-Jun",[6],"significantly decreased; also recorded: downregulation in cell cycle genes such as Cyclin D1, Cyclin D2, c-Fos, c-Jun"
same,LFB (myelin) staining in areas infiltrated by lymphocytes,[7],a large number of immune cell infiltrated areas stained positive for LFB
same,lymphocyte / immune cell infiltration (H&E),[7],significant infiltration by H&E reactive immune cells
same,LFB (myelin) staining in areas infiltrated by lymphocytes,[7]; listed as Benztropine,significantly increased LFB staining
same,lymphocyte / immune cell infiltration (H&E),[7]; listed as Benztropine,does not block lymphocyte infiltration
same,number of GST-π positive mature oligodendrocytes,"[7]; spinal cord of EAE mice, vehicle ~500",1100 per field
same,GST-π positive cells versus vehicle,[7]; [9],increased GST-π positive cells
same,number of NG2 positive cells versus vehicle,[7]; [9],did not differ significantly; also recorded: no change
same,expression of cleaved caspase 3,[8],No expression of cleaved caspase 3 was detected
CN1CCN(CCCN2c3ccccc3Sc3ccc(C(F)(F)F)cc32)CC1 [trifluoperazine],induction of OPC differentiation (MBP staining),[4],promote OPC differentiation
